Test results published in patent US7335722B2, “Peptides used as angiotensin converting enzyme inhibitor and preparation process thereof” (Food Industry Research and Development Institute, priority 1999, dated 2008).

System: ACE
Assay: ACE inhibitory activity (IC50) of the isolated peptides, method not specified
Format: biochemical
Method: The five more apparent peaks in FIG. 4 are designated as A3-B4-C6-D1 to D5. The sequences of them are determined by sequence-determining machine. Five short-chain peptides, Val-Leu-Pro (VLP), Ilu-Leu-Pro (ILP), Val-Leu-Tyr (VLY), Val-Leu-Pro-Pro (VLPP) and Ilu-Leu-Pro-Pro (ILPP) are obtained. The ACE inhibitory activity of them (IC50) is determined.

| IC50 [µM] | Substance |
| --- | --- |
| 172 | Ilu-Leu-Pro-Pro (ILPP) |
| 97 | VLPP [Val-Leu-Pro-Pro] |
